Measured values reported in publication PMC4624780 (PLoS ONE, 2015).
Square brackets hold non-standard residues; d marks the D form. Peptide text beside a SMILES is read from it. Ahx = NCCCCCC(=O)O

Assays:
[1] = system: 3A N-terminal (1–52) peptide dimer; format: biochemical, foot-and-mouth disease virus (FMDV)

CC[C@H](C)[C@H](NC(=O)[C@H](CC(C)C)NC(=O)[C@@H]1CCCN1C(=O)[C@H](CCCNC(=N)N)NC(=O)[C@H](CC(C)C)NC(=O)[C@H](CCC(=O)O)NC(=O)CCCCCNC(=O)[C@H](CCCNC(=N)N)NC(=O)[C@H](CCCNC(=N)N)NC(=O)[C@H](CCCNC(=N)N)NC(=O)[C@H](CCCNC(=N)N)NC(=O)[C@H](CCCNC(=N)N)NC(=O)[C@H](CCCNC(=N)N)NC(=O)[C@@H](N)CCCNC(=N)N)C(=O)N[C@@H](CCC(N)=O)C(=O)N[C@@H](CCC(N)=O)C(N)=O [Peptide R7-α2] (H-RRRRRRR[Ahx]ELRPLIQQ-NH2; N-terminus assumed)
inhibition of viral production (FMDV C-S8c1): dose dependent inhibition | reduction of viral yield at concentrations lower than 100 μM (FMDV C-S8c1): significant reductions | inhibition of viral production at 100 μM (FMDV C-S8c1; 24 h, 100 μM): ca. 50%

ELRPLIQQ [α2]
intensity of the N-ter dimer band, immunoblotting with polyclonal antibody 479 [1]: impaired in vitro dimer formation

FFEGMVHDS [α1]
intensity of the N-ter dimer band, immunoblotting with polyclonal antibody 479 [1]: impaired in vitro dimer formation

RRRRRRRXFFEGMVHDS [Peptide R7-α1]
inhibition of viral production (FMDV C-S8c1): dose dependent inhibition
